Experimental data as given in article PMC3608555, “The HopQ1 Effector’s Nucleoside Hydrolase-Like Domain Is Required for Bacterial Virulence in Arabidopsis and Tomato, but Not Host Recognition in Tobacco” (PLoS ONE, 2013).

Target: RihB (MBP:RihB) (Escherichia coli, UniProt P33022)
Conditions: high activity, data not shown

RihB (MBP:RihB), sequence (P33022 whole entry): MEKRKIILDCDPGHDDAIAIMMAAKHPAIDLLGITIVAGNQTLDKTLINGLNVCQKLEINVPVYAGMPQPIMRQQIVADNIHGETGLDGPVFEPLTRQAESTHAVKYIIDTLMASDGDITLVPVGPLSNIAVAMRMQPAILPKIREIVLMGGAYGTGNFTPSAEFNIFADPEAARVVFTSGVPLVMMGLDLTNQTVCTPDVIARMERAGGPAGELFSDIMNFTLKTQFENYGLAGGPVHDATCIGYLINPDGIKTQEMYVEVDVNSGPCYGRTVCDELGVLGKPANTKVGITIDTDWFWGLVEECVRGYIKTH

O=c1ccn([C@@H]2O[C@H](CO)[C@@H](O)[C@H]2O)c(=O)[nH]1 [uridine]
nucleoside hydrolase activity assay: MBP:RihB showed high enzymatic activity for cytidine and uridine
